Read-outs that look alike come from different tables or passages of the source.
Target: T1, G9a (Homo sapiens, UniProt Q96KQ7)
T1 construct: purchased Cayman 49010353
T1 sequence (Q96KQ7 1-1210): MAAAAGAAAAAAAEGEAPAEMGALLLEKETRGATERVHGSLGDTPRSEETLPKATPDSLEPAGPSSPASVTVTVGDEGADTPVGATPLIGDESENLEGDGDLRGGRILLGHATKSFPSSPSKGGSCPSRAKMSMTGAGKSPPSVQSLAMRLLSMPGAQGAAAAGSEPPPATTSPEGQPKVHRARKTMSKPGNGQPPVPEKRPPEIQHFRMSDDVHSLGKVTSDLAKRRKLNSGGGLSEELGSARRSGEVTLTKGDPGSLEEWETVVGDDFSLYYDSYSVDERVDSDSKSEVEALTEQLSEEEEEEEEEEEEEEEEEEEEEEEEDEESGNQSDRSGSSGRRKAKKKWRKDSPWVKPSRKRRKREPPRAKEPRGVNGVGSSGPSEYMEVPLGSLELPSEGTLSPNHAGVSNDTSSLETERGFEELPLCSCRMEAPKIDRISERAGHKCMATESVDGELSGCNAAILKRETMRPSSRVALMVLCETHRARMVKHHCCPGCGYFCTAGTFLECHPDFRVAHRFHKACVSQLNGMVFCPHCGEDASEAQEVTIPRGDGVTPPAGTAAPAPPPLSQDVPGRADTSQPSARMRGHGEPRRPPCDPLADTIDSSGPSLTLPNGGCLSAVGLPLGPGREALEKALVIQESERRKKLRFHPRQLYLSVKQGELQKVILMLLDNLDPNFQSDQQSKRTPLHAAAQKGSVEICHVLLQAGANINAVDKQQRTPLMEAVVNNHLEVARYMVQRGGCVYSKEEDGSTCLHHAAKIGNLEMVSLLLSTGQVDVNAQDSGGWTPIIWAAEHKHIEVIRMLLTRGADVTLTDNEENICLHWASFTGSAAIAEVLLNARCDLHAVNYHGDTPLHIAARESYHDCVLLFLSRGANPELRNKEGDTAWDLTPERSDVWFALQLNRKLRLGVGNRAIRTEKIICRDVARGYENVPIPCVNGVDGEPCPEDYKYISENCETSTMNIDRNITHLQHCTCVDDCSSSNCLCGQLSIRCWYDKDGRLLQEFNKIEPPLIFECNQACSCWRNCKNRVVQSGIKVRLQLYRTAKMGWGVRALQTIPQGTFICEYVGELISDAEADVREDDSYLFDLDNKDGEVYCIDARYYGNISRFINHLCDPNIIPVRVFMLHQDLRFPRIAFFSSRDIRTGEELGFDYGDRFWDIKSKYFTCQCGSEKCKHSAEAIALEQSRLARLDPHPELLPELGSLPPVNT
Test: Fluorescence polarization saturation binding of fluorescent probe to G9a
Procedure: Methods: The experiment was performed once, with two replicate wells for all methyltransferases per condition. The sole exception to this is NSD2 (see details below). The assay was performed in a ½ area, black, 96-well plate (Corning #3686) in a final volume of 30 μL. Methyltransferases (Table 1) were serially diluted two-fold in FP buffer (Cayman Catalog #600028) and 15 μL of a given dilution were added per well to the assay plate. Fifteen microliters of sinefungin probe 1A (10 nM) were added to each well, giving a final sinefungin probe 1A concentration of 5 nM. This concentration of sinefungin probe 1A was chosen because it had at least a 10-fold increase in fluorescence (excitation max 575 nm/emission max 615 nm) over background (buffer). The mixture was incubated in the dark at room temperature for 30 minutes and its fluorescence polarization was read using a BioTek Synergy 4.

- Kd (Example 8, G9a, 5 nM probe, experiment performed once, FIG. 2, read-out: Kd): ~700 nM
- Kd (G9a, saturation-binding format, mean ± SEM, read-out: Sinefungin Probe 1A Affinity): 1800 ± 1000 nM
Structure (SMILES): Nc1ncnc2c1ncn2[C@@H]1O[C@H](C[C@@H](N)CC[C@H](N)C(=O)O)[C@@H](OCc2cnnn2CCCCCCNC(=O)OC2CCN(C(=O)c3ccccc3C3=c4cc5c6c(c4Oc4c3cc3c7c4CCCN7CCC3)CCC[N+]=6CCC5)CC2)[C@H]1O [Sinefungin Probe 1A]

Source: patent US9120820B2, “Fluorescent molecular probes for use in assays that measure test compound competitive binding with SAM-utilizing proteins” (CAYMAN CHEMICAL COMPANY, INCORPORATED, priority 2011, dated 2015)
